From patent publication US10471029B2, “Methods for treating neurological disorders” (Alzheon, Inc., priority 2014, dated 2019)
Read-outs that look alike come from different tables or passages of the source.

Assays:
[1] = Plasma and brain exposure of tramiprosate after oral Val-APS or tramiprosate in animals (FIG. 4); format: in vivo; conditions: Val-APS prodrug versus tramiprosate
Source text: L-Valyl-3-aminopropanesulfonate (Val-APS) is an orally available small molecule prodrug of tramiprosate with improved pharmaceutical properties. Tramiprosate was advanced to a ˜2,000 patient Phase 3 program which completed in 2007. […] Thus the present disclosure provides for administration of certain compounds including val-APS to ApoE4-positive patients for the treatment of Alzheimer's Disease.
The AUC ratio of brain tramiprosate exposure due to Val-APS compared to tramiprosate is ˜2.1.

[2] = Tolerability of Val-APS prodrug over tramiprosate; format: in vivo
[3] = human, in vivo
[4] = tested on: Alzheimer's Disease patients; assay: ADAS-Cog score following treatment of Alzheimer's Disease patients with tramiprosate, retrospective subgroup analysis in 599 ApoE4+ subjects (FIGS. 1-2); format: in vivo, human; conditions: through 18 months, 150 mg BID, n=183, on top of acetylcholinesterase inhibitors and/or memantine
Protocol: FIG. 1 illustrates reduced ADAS-Cog score following treatment of Alzheimer's Disease patients with tramiprosate. At 26 weeks−1.25 (82%) P=0.0219 for 100 mg BID, −1.03 (57%), P=0.118 for 150 mg BID. At 52 weeks−2.03 (35%) P=0.002 for 100 mg BID, −1.85 (32%), P=0.006 for 150 mg BID. At 65 weeks−1.52 (22%) P=0.024 for 100 mg BID, −1.90 (27%) P=0.005 for 150 mg BID. At 78 weeks−1.90 (27%) P=0.005 for 100 mg BID, −1.86 (21%) P=0.028 for 150 mg BID. (n=599). Data derived from Caltagirone et al., “The potential protective effect of tramiprosate (homotaurine) against Alzheimer's disease: a review,” Aging Clin Exp Res. 2012 December; 24(6):580-7.
In certain embodiments, the efficacy of a compound may be determined through the ADAS-cog (Alzheimer's Disease Assessment Scale-cognitive subscale). ADAS was designed to measure the severity of the most important symptoms of Alzheimer's disease (AD). Its subscale ADAS-cog is the most popular cognitive testing instrument used in clinical trials of nootropics. It consists of 11 tasks measuring the disturbances of memory, language, praxis, attention and other cognitive abilities which are often referred to as the core symptoms of AD. The ADAS-Cog helps evaluate cognition and differentiates between normal cognitive functioning and impaired cognitive functioning. […]

[5] = tested on: Alzheimer's Disease patients; assay: ADAS-Cog by ApoE4 subgroup in merged dataset; format: in vivo, human; conditions: for Change in ADAS-Cog Slope vs placebo / Change in ADAS-Cog Week 78 / ADAS-Cog Slope vs placebo / ADAS-Cog Week 78: merged dataset; for Change in ADAS-Cog Slope vs placebo / Change in ADAS-Cog Week 78: <80 years old
Source text: (§1) In certain embodiments, the efficacy of a compound may be determined through the ADAS-cog (Alzheimer's Disease Assessment Scale-cognitive subscale). ADAS was designed to measure the severity of the most important symptoms of Alzheimer's disease (AD). Its subscale ADAS-cog is the most popular cognitive testing instrument used in clinical trials of nootropics. It consists of 11 tasks measuring the disturbances of memory, language, praxis, attention and other cognitive abilities which are often referred to as the core symptoms of AD. The ADAS-Cog helps evaluate cognition and differentiates between normal cognitive functioning and impaired cognitive functioning. It is especially useful for determining the extent of cognitive decline and can help evaluate which stage of Alzheimer's disease a person is in, based on their answers and score. The ADAS-Cog can be used in clinical trials in order to determine incremental improvements or declines in cognitive functioning.
(§2) Patients were administered 3APS at 150 mg BID and 100 mg BID or were provided a placebo. ADAS-Cog results were measured. The data establish that the decline in score is delayed by 3APS. At 13 weeks a small improvement in ADAS-cog was observed. Over time, the difference increased.

[6] = tested on: Alzheimer's Disease patients; assay: Change in ADAS-Cog by ApoE status in North American Trial; format: in vivo, human; conditions: for Change in ADAS-Cog Slope vs placebo / Change in ADAS-Cog Week 78: North American Trial
Source text: as §1, §2
Patients were administered 3APS and ADAS-Cog results were obtained at various timepoints. Patients were then genotyped to detect the presence of ApoE4 alleles. FIG. 8 illustrates the advantageous effects of tramiprosate, the active agent of Val-APS, in certain sub-populations segregated based on Apo E4 status. […] Data is presented at 13 weeks, 26 weeks, 39 weeks, 52 weeks, 65 weeks, and 78 weeks. […] ApoE4 prevalence correlates with improved cognition scores.

[7] = tested on: Alzheimer's Disease patients; assay: CDR-SB (function) in ApoE4+ subjects (FIG. 3); format: in vivo, human; conditions: through 18 months, 150 mg BID, n=183, on top of acetylcholinesterase inhibitors and/or memantine
[8] = tested on: Alzheimer's Disease patients; conditions: n=599, cited from earlier work

## CC(C)[C@H](N)C(=O)NCCCS(=O)(=O)O [Val-APS, L-Valyl-3-aminopropanesulfonate]
[1]
  accumulation in the brain: improved
[2]
  GI tolerability: improved
  nausea & vomiting: reduced
[3]
  formation of metabolite NRM5074: reduced
  inter-subject PK variability: decreased
  t½: 14.9 ±3.9

## NCCCS(=O)(=O)O [Compound 3APS, 3-amino-1-propanesulfonic acid]
[4]
  cognition (ADAS-cog): clinically meaningful improvement
[5]; 150 mg BID and 100 mg BID versus placebo
  decline in ADAS-Cog score: delayed
[5]; ApoE4+, 100 mg BID
  Change in ADAS-Cog Slope vs placebo: −3.92
  Change in ADAS-Cog Week 78: −1.13
  ADAS-Cog Slope vs placebo: −3.61
  ADAS-Cog Week 78: −1.09
[5]; ApoE4+, 150 mg BID
  Change in ADAS-Cog Slope vs placebo: −8.65
  Change in ADAS-Cog Week 78: −2.17
  ADAS-Cog Slope vs placebo: −7.09
  ADAS-Cog Week 78: −1.73
[5]; ApoE4−, 100 mg BID
  Change in ADAS-Cog Slope vs placebo: −4.40
  Change in ADAS-Cog Week 78: −2.54
  ADAS-Cog Slope vs placebo: −2.45
  ADAS-Cog Week 78: −1.92
[5]; ApoE4−, 150 mg BID
  Change in ADAS-Cog Slope vs placebo: −2.81
  Change in ADAS-Cog Week 78: −0.93
  ADAS-Cog Slope vs placebo: 0.35
  ADAS-Cog Week 78: −0.66
[5]; Total, 100 mg BID
  Change in ADAS-Cog Slope vs placebo: −3.94
  Change in ADAS-Cog Week 78: −1.55
  ADAS-Cog Slope vs placebo: −3.18
  ADAS-Cog Week 78: −1.34
[5]; Total, 150 mg BID
  Change in ADAS-Cog Slope vs placebo: −6.37
  Change in ADAS-Cog Week 78: −1.66
  ADAS-Cog Slope vs placebo: −4.19
  ADAS-Cog Week 78: −1.27
[6]; ApoE4+ and ++, 100 mg BID
  Change in ADAS-Cog Slope vs placebo: −1.43
  Change in ADAS-Cog Week 78: −0.81
[6]; ApoE4+ and ++, 150 mg BID
  Change in ADAS-Cog Slope vs placebo: −7.49
  Change in ADAS-Cog Week 78: −1.67
[6]; ApoE4++, 100 mg BID
  Change in ADAS-Cog Slope vs placebo: −4.33
  Change in ADAS-Cog Week 78: −1.49
[6]; ApoE4++, 150 mg BID
  Change in ADAS-Cog Slope vs placebo: −19.79
  Change in ADAS-Cog Week 78: −4.63
[6]; ApoE4−, 100 mg BID
  Change in ADAS-Cog Slope vs placebo: −2.04
  Change in ADAS-Cog Week 78: −1.23
[6]; ApoE4−, 150 mg BID
  Change in ADAS-Cog Slope vs placebo: 3.57
  Change in ADAS-Cog Week 78: 0.59
[6]; Total, 100 mg BID
  Change in ADAS-Cog Slope vs placebo: −1.75
  Change in ADAS-Cog Week 78: −0.93
[6]; Total, 150 mg BID
  Change in ADAS-Cog Slope vs placebo: −3.32
  Change in ADAS-Cog Week 78: −0.83
[6]; homozygous ApoE4 subjects, 150 mg BID, n=34
  improvement versus placebo on cognition: 4 point
[6]; homozygous ApoE4 subjects, 150 mg BID, n=34, after 18 months of treatment
  improvement versus placebo on the ADAS-cog: 4.62 points
[7]
  function (CDR-SB): clinically meaningful improvement
[8]; 26 weeks, 100 mg BID
  ADAS-Cog score, percent in brackets: 82%
[8]; 26 weeks, 150 mg BID
  ADAS-Cog score: −1.03
  ADAS-Cog score, percent in brackets: 57%
[8]; 52 weeks, 100 mg BID
  ADAS-Cog score, percent in brackets: 35%
[8]; 52 weeks, 150 mg BID
  ADAS-Cog score: −1.85
  ADAS-Cog score, percent in brackets: 32%
[8]; 65 weeks, 100 mg BID
  ADAS-Cog score, percent in brackets: 22%
[8]; 65 weeks, 150 mg BID
  ADAS-Cog score: −1.90
  ADAS-Cog score, percent in brackets: 27%
[8]; 78 weeks, 100 mg BID
  ADAS-Cog score: −1.90
  ADAS-Cog score, percent in brackets: 27%
[8]; 78 weeks, 150 mg BID
  ADAS-Cog score: −1.86
  ADAS-Cog score, percent in brackets: 21%
